Source: the supplement of paper PMC10307832

Assays:
Assay in all cases: relative viability (nuclei count vs DMSO), 5 days (fraction); higher = more cells survive
[1] = system: NCI-H1651
Method in brief: (§1)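 For relative viability, nuclei counts in treated wells were divided by those in vehicle wells. Lung cancer cell lines had been pin-tool dosed in 1536-well plates the day after seeding and cultured for 5 days, then fixed and stained in one step (final 0.05% Triton X-100, 1% formaldehyde, 1 ug/ml Hoechst) and imaged at 4×. Doses were one drug alone or a fixed anchor-drug dose plus five library-drug doses (not always all listed) in √10 steps, and values are duplicate-plate medians.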

[2] = system: RERF-LC-KJ
Method in brief: as §1

[3] = system: NCI-H838
Method in brief: as §1

[4] = system: NCI-H1648
Method in brief: as §1

[5] = system: NCI-H520
Method in brief: as §1

[6] = system: NCI-H1944
Method in brief: as §1

[7] = system: NCI-H650
Method in brief: as §1

O=c1cc(N2CCOCC2)oc2c(-c3cccc4c3sc3ccccc34)cccc12 + CC(=O)Nc1cccc(-n2c(=O)n(C3CC3)c(=O)c3c(Nc4ccc(I)cc4F)n(C)c(=O)c(C)c32)c1 [Trametinib] (partner 0.02 µM)
relative viability ([1]; first compound 0.01 µM): 0.816
relative viability ([1]; first compound 0.03162 µM): 0.818
relative viability ([1]; first compound 0.1 µM): 0.817
relative viability ([1]; first compound 0.3162 µM): 0.819
relative viability ([1]; first compound 1 µM): 0.871
relative viability ([2]; first compound 0.01 µM): 0.824
relative viability ([2]; first compound 0.03162 µM): 0.874
relative viability ([2]; first compound 0.1 µM): 0.936
relative viability ([2]; first compound 0.3162 µM): 0.836
relative viability ([2]; first compound 1 µM): 0.798
relative viability ([3]; first compound 0.01 µM): 0.594
relative viability ([3]; first compound 0.03162 µM): 0.557
relative viability ([3]; first compound 0.1 µM): 0.481
relative viability ([3]; first compound 0.3162 µM): 0.469
relative viability ([3]; first compound 1 µM): 0.442
relative viability ([4]; first compound 0.03162 µM): 0.471
relative viability ([4]; first compound 0.1 µM): 0.5
relative viability ([4]; first compound 0.3162 µM): 0.446
relative viability ([4]; first compound 1 µM): 0.483
relative viability ([5]; first compound 0.01 µM): 1.14
relative viability ([5]; first compound 0.03162 µM): 0.594
relative viability ([5]; first compound 0.1 µM): 0.768
relative viability ([5]; first compound 0.3162 µM): 0.717
relative viability ([5]; first compound 1 µM): 0.732
relative viability ([6]; first compound 0.01 µM): 0.448
relative viability ([6]; first compound 0.03162 µM): 0.403
relative viability ([6]; first compound 0.1 µM): 0.396
relative viability ([6]; first compound 0.3162 µM): 0.411
relative viability ([6]; first compound 1 µM): 0.363
relative viability ([7]; first compound 0.01 µM): 1.05
relative viability ([7]; first compound 0.03162 µM): 1.1
relative viability ([7]; first compound 0.3162 µM): 0.939
relative viability ([7]; first compound 1 µM): 1.04

CCN(CC)CCCCNc1ncc2cc(-c3cc(OC)cc(OC)c3)c(NC(=O)NC(C)(C)C)nc2n1 + CC(=O)Nc1cccc(-n2c(=O)n(C3CC3)c(=O)c3c(Nc4ccc(I)cc4F)n(C)c(=O)c(C)c32)c1 [Trametinib] (partner 0.02 µM)
relative viability ([1]; first compound 0.01 µM): 0.863
relative viability ([1]; first compound 0.03162 µM): 0.802
relative viability ([1]; first compound 0.1 µM): 0.842
relative viability ([1]; first compound 0.3162 µM): 0.836
relative viability ([1]; first compound 1 µM): 0.806
relative viability ([2]; first compound 0.01 µM): 0.925
relative viability ([2]; first compound 0.03162 µM): 0.923
relative viability ([2]; first compound 0.1 µM): 0.94
relative viability ([2]; first compound 0.3162 µM): 0.906
relative viability ([2]; first compound 1 µM): 0.818
relative viability ([3]; first compound 0.01 µM): 0.469
relative viability ([3]; first compound 0.03162 µM): 0.515
relative viability ([3]; first compound 0.1 µM): 0.514
relative viability ([3]; first compound 0.3162 µM): 0.435
relative viability ([3]; first compound 1 µM): 0.443
relative viability ([4]; first compound 0.01 µM): 0.368
relative viability ([4]; first compound 0.03162 µM): 0.49
relative viability ([4]; first compound 0.1 µM): 0.396
relative viability ([4]; first compound 0.3162 µM): 0.46
relative viability ([4]; first compound 1 µM): 0.367
relative viability ([5]; first compound 0.01 µM): 0.684
relative viability ([5]; first compound 0.03162 µM): 0.538
relative viability ([5]; first compound 0.1 µM): 0.722
relative viability ([5]; first compound 0.3162 µM): 0.287
relative viability ([5]; first compound 1 µM): 0.216
relative viability ([6]; first compound 0.01 µM): 0.428
relative viability ([6]; first compound 0.03162 µM): 0.398
relative viability ([6]; first compound 0.1 µM): 0.403
relative viability ([6]; first compound 0.3162 µM): 0.416
relative viability ([6]; first compound 1 µM): 0.401
relative viability ([7]; first compound 0.01 µM): 1.03
relative viability ([7]; first compound 0.03162 µM): 1.01
relative viability ([7]; first compound 0.1 µM): 0.962
relative viability ([7]; first compound 0.3162 µM): 1.07
relative viability ([7]; first compound 1 µM): 0.925

O=c1cc(-c2cccc3c2Sc2ccccc2S3)oc(N2CCOCC2)c1 + CC(=O)Nc1cccc(-n2c(=O)n(C3CC3)c(=O)c3c(Nc4ccc(I)cc4F)n(C)c(=O)c(C)c32)c1 [Trametinib] (partner 0.02 µM)
relative viability ([1]; first compound 0.08 µM): 0.906
relative viability ([1]; first compound 0.253 µM): 0.709
relative viability ([1]; first compound 0.8 µM): 0.843
relative viability ([1]; first compound 2.53 µM): 0.803
relative viability ([1]; first compound 8 µM): 0.832
relative viability ([2]; first compound 0.08 µM): 0.79
relative viability ([2]; first compound 0.253 µM): 0.856
relative viability ([2]; first compound 0.8 µM): 0.89
relative viability ([2]; first compound 2.53 µM): 0.895
relative viability ([2]; first compound 8 µM): 0.784
relative viability ([3]; first compound 0.08 µM): 0.462
relative viability ([3]; first compound 0.253 µM): 0.673
relative viability ([3]; first compound 0.8 µM): 0.49
relative viability ([3]; first compound 2.53 µM): 0.502
relative viability ([3]; first compound 8 µM): 0.47
relative viability ([4]; first compound 0.253 µM): 0.515
relative viability ([4]; first compound 0.8 µM): 0.427
relative viability ([4]; first compound 8 µM): 0.389
relative viability ([5]; first compound 0.08 µM): 0.566
relative viability ([5]; first compound 0.253 µM): 0.741
relative viability ([5]; first compound 0.8 µM): 0.78
relative viability ([5]; first compound 2.53 µM): 0.776
relative viability ([5]; first compound 8 µM): 0.637
relative viability ([6]; first compound 0.08 µM): 0.365
relative viability ([6]; first compound 0.253 µM): 0.414
relative viability ([6]; first compound 0.8 µM): 0.396
relative viability ([6]; first compound 2.53 µM): 0.428
relative viability ([6]; first compound 8 µM): 0.428
relative viability ([7]; first compound 0.08 µM): 0.994
relative viability ([7]; first compound 0.253 µM): 1.03
relative viability ([7]; first compound 0.8 µM): 0.959
relative viability ([7]; first compound 2.53 µM): 0.901
relative viability ([7]; first compound 8 µM): 0.977
